The values below come from patent US6992060B2, “Prolonged efficacy of islet neogenesis therapy methods with a gastrin/CCK receptor ligand and an EGF receptor ligand composition in subjects with preexisting diabetes” (Waratah Pharmaceuticals, Inc., priority 2001, dated 2006).

Structures are written as SMILES.

This assay relates to rats. Briefly: Induction of diabetes by intravenous streptozotocin. In kind it is in vivo, rat. The conditions noted are these: 50 mg/kg intravenous injection. How it is done: Diabetes was induced by intravenous injection with 50 mg/kg streptozotocin (STZ), which reduced pancreatic insulin content by 95%. One week later, STZ diabetic rats (of weight 200–250 g) were administered either the vehicle alone as a control (labeled CON in FIG. 1), or were administered a combination of human gastrin 17 (4 μg/kg) and human TGFα (4 μg/kg) peptides (labeled GAS/TGF) by once-daily, intraperitoneal injections for 12 days. At 1, 2, 4 and 8 weeks after treatment, intraperitoneal glucose tolerance tests (IPGTT) were performed, to measure both blood glucose levels, and plasma insulin levels, in response to a challenge amount of glucose.

Take `CN(N=O)C(=O)N[C@H]1C(O)O[C@H](CO)[C@@H](O)[C@@H]1O` (mixture of isomers) [streptozotocin]: the “reduction of pancreatic insulin content” value came out at 95%.
